Positions of bridges follow the written chain, without caps; N, C: chain ends. No end group written: not given here.
Experiments:
[1] = test system: antibodies which have binding specificity for cyclic analogs of hPTH (HRP-labeled anti-C-terminal antibody plus biotinylated anti-N-terminal antibody); assay: two-site sandwich ELISA for [Leu^27]cyclo(Glu^22-Lys^26)hPTH-(1-31); parameters: species or system rabbit; conditions: for detection in the two-site sandwich ELISA (cross-reaction), OD at 450 nm: peptides at 10,000, 1,000 and 100 pg/ml in BSA based buffer matrix, FIG. 3
Protocol: Streptavidin was weighed and diluted to 20 mg/L with phosphate buffer, 0.2 ml of this solution was added to each well of Corning® 96 Well Polystyrene Microplate. The plates were incubated at room temperature for 18-22 hours. The plates were then washed and a stabile/blocking buffer containing BSA was added. The plates were again incubated at room temperature for four hours. The plates were finally dried at <30% humidity. […] The peptide was diluted with a bovine serum albumin and normal bovine serum based buffer matrix to a final concentration of 1600 pg/ml, 400 pg/ml, 100 pg/ml, 25 pg/ml and 6 pg/ml. […] The above antigen and antibodies were incubated in the streptavidin coated well for 3 hours at room temperature with shaking at 170 rpm. After incubation, each well was washed with an ELISA wash buffer. 200 μL of tetra methyl benzidine (TMB) was then added into each well. The wells were incubated for 20 min at room temperature and then 100 μL of a stop solution was added into each well. The Microplates were read with a microtiter plate reader (VERSAmaxTM, Molecular Device, Inc.) at an absorption wavelength of 450 nm. A standard curve was obtained by plotting the optical density (OD) at 450 nm against the correspondent Ostabolin-C standard concentration. […] The OD at 450 nm values were read by a microtiter plate reader ([…], Molecular Device, Inc.) (FIG. 3).

adenylyl cyclase (AC) = conditions: cited from earlier work
ovariectomized rat model = conditions: cited from earlier work

In the case of “[Leu^27]cyclo(Glu^22-Lys^26)hPTH-(1-31) (SVSEIQLMHNLGKHLNSMERVEWLRKLLQDV-NH2; lactam 22-26; N-terminus assumed; SMILES CC[C@H](C)[C@H](NC(=O)[C@H](CCC(=O)O)NC(=O)[C@H](CO)NC(=O)[C@@H](NC(=O)[C@@H](N)CO)C(C)C)C(=O)N[C@@H](CCC(N)=O)C(=O)N[C@@H](CC(C)C)C(=O)N[C@@H](CCSC)C(=O)N[C@@H](Cc1c[nH]cn1)C(=O)N[C@@H](CC(N)=O)C(=O)N[C@@H](CC(C)C)C(=O)NCC(=O)N[C@@H](CCCCN)C(=O)N[C@@H](Cc1c[nH]cn1)C(=O)N[C@@H](CC(C)C)C(=O)N[C@@H](CC(N)=O)C(=O)N[C@@H](CO)C(=O)N[C@@H](CCSC)C(=O)N[C@@H](CCC(=O)O)C(=O)N[C@@H](CCCNC(=N)N)C(=O)N[C@H](C(=O)N[C@H]1CCC(=O)NCCCC[C@@H](C(=O)N[C@@H](CC(C)C)C(=O)N[C@@H](CC(C)C)C(=O)N[C@@H](CCC(N)=O)C(=O)N[C@@H](CC(=O)O)C(=O)N[C@H](C(N)=O)C(C)C)NC(=O)[C@H](CCCNC(=N)N)NC(=O)[C@H](CC(C)C)NC(=O)[C@H](Cc2c[nH]c3ccccc23)NC1=O)C(C)C) [cyclic analog of hPTH, cyclized between Glu^22 and Lys^26]”, the “standard curve, optical density (OD) at 450 nm against standard concentration” value ([1]; peptide standards 1600, 400, 100, 25 and 6 pg/ml, FIG. 2) is reported as “dose responsive standard curve” and the “detection in the two-site sandwich ELISA (cross-reaction), OD at 450 nm” value (“detection in the two-site sandwich ELISA” for short) [1] is reported as “dose responsive manner”.

For hPTH-(1-31), the “detection in the two-site sandwich ELISA” value [1] was “not able to detect”.

In the case of hPTH-(1-31)-NH2, the AC stimulating activity (adenylyl cyclase (AC)) is given as “has only AC stimulating activity” and the “restoration of bone loss” value (ovariectomized rat model) is given as “fully active”.

With hPTH-(1-34) the “detection in the two-site sandwich ELISA” value [1] was “not able to detect”.

With hPTH-(1-84) the “detection in the two-site sandwich ELISA” value [1] was “not able to detect”.

Reference: US20060068444A1, “Compositions and methods for detecting cyclic analogs of hPTH” (Zelos Therapeutics, Inc, priority 2004, published 2006)
